Assay results from ChEMBL document CHEMBL3885861, “Open TG-GATES”.

Organism: Rattus norvegicus
Assay: Open TG-GATES - Regimen: Single
Format: toxicity, organism-based, Sprague-Dawley
Set-up: regimen Single, gender Male, age 6 weeks
Details: in vivo, po, 450 mg/kg, route gavage, dose level Low; for APTT / Bas / Eos / Fbg / Hb / Ht / Lym / MCH / MCHC / MCV / Mono / Neu / Plat / RBC / Ret / WBC: tissue Blood; for KIDNEY_L / KIDNEY_R / KIDNEY_TOTAL: tissue Kidney; for LIVER: tissue Liver; for ALP / ALT / AST / BUN / CRE / Ca / Cl / DBIL / GLC / IP / K / LDH / Na / PL / RALB / TBIL / TC / TG / TP / gamma-GTP: tissue Plasma

CC(=O)Oc1ccccc1C(=O)O [ASPIRIN]
TERMINAL_BW (9 h): 215.1 g | APTT (9 h): 21.4 s | Bas (9 h): 0% | Eos (9 h): 0.8% | Fbg (9 h): 220.4 mg/dL | Hb (9 h): 13.6 g/dL | Ht (9 h): 38.2% | Lym (9 h): 68.2% | MCH (9 h): 21.9 pg | MCHC (9 h): 35.5% | MCV (9 h): 61.8 fL | Mono (9 h): 2.2% | Neu (9 h): 28% | Plat (9 h): 124.6 x10_4/uL | RBC (9 h): 619.4 x10_4/ul | Ret (9 h): 8.4% | WBC (9 h): 94.9 x10_2/uL | KIDNEY_L (9 h): 1 g | KIDNEY_R (9 h): 1 g | KIDNEY_TOTAL (9 h): 1.9 g | LIVER (9 h): 7.9 g | ALP (9 h): 828 IU/L | ALT (9 h): 34.4 IU/L | AST (9 h): 77.4 IU/L | BUN (9 h): 13.2 mg/dL | CRE (9 h): 0.4 mg/dL | Ca (9 h): 9.1 mg/dL | Cl (9 h): 106.8 meq/L | DBIL (9 h): 0.05 mg/dL | GLC (9 h): 201.2 mg/dL | IP (9 h): 8.3 mg/dL | K (9 h): 3.4 meq/L | LDH (9 h): 210.2 IU/L | Na (9 h): 141.2 meq/L | PL (9 h): 93.4 mg/dL | RALB (9 h): 3.3 g/dL | TBIL (9 h): 0.096 mg/dL | TC (9 h): 55.2 mg/dL | TG (9 h): 12.6 mg/dL | TP (9 h): 5.4 g/dL | gamma-GTP (9 h): 0.8 IU/L | TERMINAL_BW (24 h): 217.9 g | APTT (24 h): 24.7 s | Bas (24 h): 0.4% | Eos (24 h): 1% | Fbg (24 h): 222 mg/dL | Hb (24 h): 14.4 g/dL | Ht (24 h): 38.6% | Lym (24 h): 79.8% | MCH (24 h): 22.7 pg | MCHC (24 h): 37.2% | MCV (24 h): 60.9 fL | Mono (24 h): 2.2% | Neu (24 h): 16.2% | Plat (24 h): 129 x10_4/uL | RBC (24 h): 633.6 x10_4/ul | Ret (24 h): 7.2% | WBC (24 h): 106.4 x10_2/uL | KIDNEY_L (24 h): 1 g | KIDNEY_R (24 h): 1 g | KIDNEY_TOTAL (24 h): 1.9 g | LIVER (24 h): 9.2 g | ALP (24 h): 905.4 IU/L | ALT (24 h): 43.4 IU/L | AST (24 h): 82.4 IU/L | BUN (24 h): 15.8 mg/dL | CRE (24 h): 0.5 mg/dL | Ca (24 h): 10.4 mg/dL | Cl (24 h): 104.6 meq/L | DBIL (24 h): 0.048 mg/dL | GLC (24 h): 196.4 mg/dL | IP (24 h): 8.6 mg/dL | K (24 h): 3.7 meq/L | LDH (24 h): 199.2 IU/L | Na (24 h): 141 meq/L | PL (24 h): 107 mg/dL | RALB (24 h): 3.5 g/dL | TBIL (24 h): 0.092 mg/dL | TC (24 h): 56 mg/dL | TG (24 h): 39.6 mg/dL | TP (24 h): 5.6 g/dL | gamma-GTP (24 h): 1 IU/L
